Reference: US8580731B2, “Insulin-gold nanocluster, pharmaceutical composition for reducing blood glucose comprising the same, and method for detecting adipose cells in tissue by using the same” (priority 2012, dated 2013)

System: insulin-degradation enzyme (IDE)
Assay: Insulin-Au NC fluorescence in mouse brain homogenate (IDE degradation and inhibition)
Type: biochemical
Details: inhibitor 0.01 to 1 mM pre-incubated 30 min with brain homogenate
Procedure: In addition, ten-week-old C57BL/6J male mice were well-anesthetized by i.p. injection of pentobarbital (75 mg/kg), and then the brain was removed and homogenated in PBS. The homogenate was then centrifuged at 6,000×g for 20 min and the supernatant was collected for the preparation of further experiments.
0.01, 0.1, and 1 mM doses of thiorphan or racecadotril, which was known as inhibiting agents for insulin-degradation enzyme (IDE), were co-incubated with the brain homogenates for 30 min, and then 10 μg/ml insulin-Au NCs was added and incubated with brain homogenates for 1 hour at 37° C. The detection of the insulin-Au NCs was determined by 450 nm and 650 nm of the emission excitation wavelength, respectively.

SMILES | recovery of 670 nm emission (IDE inhibition)
CC(=O)SCC(Cc1ccccc1)C(=O)NCC(=O)OCc1ccccc1 (centres unmarked) [racecadotril] | signal recovery was increased
O=C(O)CNC(=O)C(CS)Cc1ccccc1 (centres unmarked) [thiorphan] | signal recovery was increased
